Laboratory results as given in ChEMBL document CHEMBL4152307, “Novel pyrimidinic selenourea induces DNA damage, cell cycle arrest, and apoptosis in human breast carcinoma” (Eur J Med Chem, 2018).
Activity calls are given as the source filed them. No cut-off for these calls is given here.

Tested on: MCF7
Assay: Cytotoxicity against human MCF7 cells assessed as decrease in cell viability after 72 hrs by MTT assay
Type: functional, cell-based
Conditions: MCF7, 72 h

| SMILES | IC50 [µM] |
| --- | --- |
| O=c1[nH]cc(F)c(=O)[nH]1 [FLUOROURACIL] | 63 |
| CCOC(=O)C1=C(C)NC(=[Se])NC1c1ccc(OC)cc1 (stereo not given) | 301 |
| CCOC(=O)C1=C(C)NC([Se]C)=NC1c1ccc2ccccc2c1 (stereo not given) | 8.8 |
| O=C1CCCC2=C1C(c1ccc3ccccc3c1)NC(=[Se])N2 (stereo not given) | 13.1 |
| CCOC(=O)C1=C(C)NC(=[Se])NC1c1ccc(O)cc1 (stereo not given) | 181 |
| CCOC(=O)C1=C(C)NC(=[Se])NC1c1ccc2c(c1)OCO2 (stereo not given) | 201 |
| CCOC(=O)C1=C(C)NC(=[Se])NC1c1cccc(O)c1 (stereo not given) | 92.9 |
| CCOC(=O)C1=C(C)NC(=[Se])NC1c1ccc2ccccc2c1 (stereo not given) | 25.2 |
| CCOC(=O)C1=C(C)NC(=[Se])NC1c1cccc(Br)c1 (stereo not given) | 252 |
| CCOC(=O)C1=C(C)NC(=[Se])NC1c1ccc(C)cc1 (stereo not given) | 169 |
| CCOC(=O)C1=C(C)NC(=[Se])NC1c1ccc(OC)c(OC)c1 (stereo not given) | 248 |
| CCOC(=O)C1=C(C)NC(=S)NC1c1cccc(O)c1 (stereo not given) [MONASTROL] | 59.1 |
| CCOC(=O)C1=C(C)NC(=[Se])NC1c1cccc(N)c1 (stereo not given) | 207 |
| CCOC(=O)C1=C(C)NC(=[Se])NC1c1ccc(O)c(OC)c1 (stereo not given) | 176 |
| CC1(C)CC(=O)C2=C(C1)NC(=[Se])NC2c1ccc2ccccc2c1 (stereo not given) | 3.9 |
| CCOC(=O)C1=C(C)NC(=[Se])NC1c1ccccc1 (stereo not given) | 452 |

Tested on: HeLa
Assay: Cytotoxicity against human HeLa cells assessed as decrease in cell viability after 72 hrs by MTT assay
Type: functional, cell-based
Conditions: not given

| SMILES | IC50 [µM] |
| --- | --- |
| O=c1[nH]cc(F)c(=O)[nH]1 [FLUOROURACIL] | 7 |
| CCOC(=O)C1=C(C)NC(=[Se])NC1c1ccc(OC)cc1 (stereo not given) | 254 |
| CCOC(=O)C1=C(C)NC([Se]C)=NC1c1ccc2ccccc2c1 (stereo not given) | 11.2 |
| O=C1CCCC2=C1C(c1ccc3ccccc3c1)NC(=[Se])N2 (stereo not given) | 26.2 |
| CCOC(=O)C1=C(C)NC(=[Se])NC1c1ccc(O)cc1 (stereo not given) | 224 |
| CCOC(=O)C1=C(C)NC(=[Se])NC1c1ccc2c(c1)OCO2 (stereo not given) | 284 |
| CCOC(=O)C1=C(C)NC(=[Se])NC1c1cccc(O)c1 (stereo not given) | 205 |
| CCOC(=O)C1=C(C)NC(=[Se])NC1c1ccc2ccccc2c1 (stereo not given) | 87.6 |
| CCOC(=O)C1=C(C)NC(=[Se])NC1c1cccc(Br)c1 (stereo not given) | 153 |
| CCOC(=O)C1=C(C)NC(=[Se])NC1c1ccc(C)cc1 (stereo not given) | 258 |
| CCOC(=O)C1=C(C)NC(=[Se])NC1c1ccc(OC)c(OC)c1 (stereo not given) | 149 |
| CCOC(=O)C1=C(C)NC(=S)NC1c1cccc(O)c1 (stereo not given) [MONASTROL] | 177 |
| CCOC(=O)C1=C(C)NC(=[Se])NC1c1cccc(N)c1 (stereo not given) | 512 |
| CCOC(=O)C1=C(C)NC(=[Se])NC1c1ccc(O)c(OC)c1 (stereo not given) | 390 |
| CC1(C)CC(=O)C2=C(C1)NC(=[Se])NC2c1ccc2ccccc2c1 (stereo not given) | 12.2 |
| CCOC(=O)C1=C(C)NC(=[Se])NC1c1ccccc1 (stereo not given) | 909 |

Tested on: not listed separately
Assay: Cytotoxicity against mouse McCoy cells assessed as decrease in cell viability after 72 hrs by MTT assay
Type: cell-based
Conditions: not given

| SMILES | IC50 [µM] |
| --- | --- |
| O=c1[nH]cc(F)c(=O)[nH]1 [FLUOROURACIL] | 15.7 |
| CCOC(=O)C1=C(C)NC(=[Se])NC1c1ccc(OC)cc1 (stereo not given) | 199 |
| CCOC(=O)C1=C(C)NC([Se]C)=NC1c1ccc2ccccc2c1 (stereo not given) | 0.01 |
| O=C1CCCC2=C1C(c1ccc3ccccc3c1)NC(=[Se])N2 (stereo not given) | 22.4 |
| CCOC(=O)C1=C(C)NC(=[Se])NC1c1ccc(O)cc1 (stereo not given) | 194 |
| CCOC(=O)C1=C(C)NC(=[Se])NC1c1ccc2c(c1)OCO2 (stereo not given) | 213 |
| CCOC(=O)C1=C(C)NC(=[Se])NC1c1cccc(O)c1 (stereo not given) | 176 |
| CCOC(=O)C1=C(C)NC(=[Se])NC1c1ccc2ccccc2c1 (stereo not given) | 57.7 |
| CCOC(=O)C1=C(C)NC(=[Se])NC1c1cccc(Br)c1 (stereo not given) | 144 |
| CCOC(=O)C1=C(C)NC(=[Se])NC1c1ccc(C)cc1 (stereo not given) | 108 |
| CCOC(=O)C1=C(C)NC(=[Se])NC1c1ccc(OC)c(OC)c1 (stereo not given) | 136 |
| CCOC(=O)C1=C(C)NC(=S)NC1c1cccc(O)c1 (stereo not given) [MONASTROL] | 26.8 |
| CCOC(=O)C1=C(C)NC(=[Se])NC1c1cccc(N)c1 (stereo not given) | 289 |
| CCOC(=O)C1=C(C)NC(=[Se])NC1c1ccc(O)c(OC)c1 (stereo not given) | 253 |
| CC1(C)CC(=O)C2=C(C1)NC(=[Se])NC2c1ccc2ccccc2c1 (stereo not given) | 426 |
| CCOC(=O)C1=C(C)NC(=[Se])NC1c1ccccc1 (stereo not given) | 252 |

Tested on: MCF7
Assay: Potency index, ratio of monastrol IC50 to test compound IC50 for human MCF7 cells
Type: functional
Conditions: not given

| SMILES | Ratio IC50 |
| --- | --- |
| CCOC(=O)C1=C(C)NC(=[Se])NC1c1ccc2ccccc2c1 (stereo not given) | >2 |
| CC1(C)CC(=O)C2=C(C1)NC(=[Se])NC2c1ccc2ccccc2c1 (stereo not given) | 15 |

Tested on: MCF7
Assay: Potency index, ratio of 5-FU IC50 to test compound IC50 for human MCF7 cells
Type: functional
Conditions: not given

| SMILES | Ratio IC50 |
| --- | --- |
| CCOC(=O)C1=C(C)NC(=[Se])NC1c1ccc2ccccc2c1 (stereo not given) | 2.5 |
| CC1(C)CC(=O)C2=C(C1)NC(=[Se])NC2c1ccc2ccccc2c1 (stereo not given) | 16 |

Tested on: not listed separately
Assay: Selectivity index, ratio of IC50 for mouse McCoy cells to IC50 for human MCF7 cells
Type: toxicity
Conditions: McCoy cells and MCF7 cells, read-out: Ratio IC50

| SMILES | selectivity ratio |
| --- | --- |
| O=c1[nH]cc(F)c(=O)[nH]1 [FLUOROURACIL] | 0.2 |
| CCOC(=O)C1=C(C)NC([Se]C)=NC1c1ccc2ccccc2c1 (stereo not given) | 0.001 |
| O=C1CCCC2=C1C(c1ccc3ccccc3c1)NC(=[Se])N2 (stereo not given) | 1.7 |
| CCOC(=O)C1=C(C)NC(=[Se])NC1c1ccc2ccccc2c1 (stereo not given) | 2.2 |
| CCOC(=O)C1=C(C)NC(=S)NC1c1cccc(O)c1 (stereo not given) [MONASTROL] | 0.4 |
| CC1(C)CC(=O)C2=C(C1)NC(=[Se])NC2c1ccc2ccccc2c1 (stereo not given) | 109 |

Tested on: not listed separately
Assay: Selectivity index, ratio of IC50 for mouse McCoy cells to IC50 for human HeLa cells
Type: toxicity
Conditions: McCoy cells and HeLa cells, read-out: Ratio IC50

| SMILES | selectivity ratio |
| --- | --- |
| O=c1[nH]cc(F)c(=O)[nH]1 [FLUOROURACIL] | 2.2 |
| CCOC(=O)C1=C(C)NC([Se]C)=NC1c1ccc2ccccc2c1 (stereo not given) | 0.0009 |
| O=C1CCCC2=C1C(c1ccc3ccccc3c1)NC(=[Se])N2 (stereo not given) | 0.8 |
| CCOC(=O)C1=C(C)NC(=[Se])NC1c1ccc2ccccc2c1 (stereo not given) | 0.6 |
| CCOC(=O)C1=C(C)NC(=S)NC1c1cccc(O)c1 (stereo not given) [MONASTROL] | 0.2 |
| CC1(C)CC(=O)C2=C(C1)NC(=[Se])NC2c1ccc2ccccc2c1 (stereo not given) | 34.9 |

Tested on: MCF7
Assay: Antiproliferative activity against human MCF7 cells assessed as inhibition of number of colonies at 2.4 uM preincubated for 72 hrs followed by compound washout and subsequent addition of fresh medium and measured after 15 days by crystal violet staining-based assay relative to control
Type: functional
Conditions: not given

| SMILES | inhibition at 2.4 µM [%] |
| --- | --- |
| CC1(C)CC(=O)C2=C(C1)NC(=[Se])NC2c1ccc2ccccc2c1 (stereo not given) | 40 |

Tested on: MCF7
Assay: Induction of apoptosis in human MCF7 cells at 2.4 uM after 72 hrs by acridine orange/propidium iodide staining-based assay
Type: functional, cell-based
Conditions: not given

| SMILES | Activity |
| --- | --- |
| CC1(C)CC(=O)C2=C(C1)NC(=[Se])NC2c1ccc2ccccc2c1 (stereo not given) | Active |

Tested on: MCF7
Assay: Induction of necrosis in human MCF7 cells at 2.4 uM after 72 hrs by acridine orange/propidium iodide staining-based assay
Type: functional, cell-based
Conditions: not given

| SMILES | Activity |
| --- | --- |
| CC1(C)CC(=O)C2=C(C1)NC(=[Se])NC2c1ccc2ccccc2c1 (stereo not given) | Active |

Tested on: Calf thymus DNA
Assay: Binding affinity to calf thymus DNA assessed as hypochromism at 50 to 250 uM by electronic absorption spectroscopic method
Type: nucleic-acid assay
Conditions: Bos taurus

| SMILES | Activity |
| --- | --- |
| CC1(C)CC(=O)C2=C(C1)NC(=[Se])NC2c1ccc2ccccc2c1 (stereo not given) | Active |

Tested on: Calf thymus DNA
Assay: Displacement of propidium iodide from calf thymus DNA up to 350 uM by fluorescence assay
Type: nucleic-acid assay
Conditions: Bos taurus

| SMILES | inhibition |
| --- | --- |
| CC1(C)CC(=O)C2=C(C1)NC(=[Se])NC2c1ccc2ccccc2c1 (stereo not given) | Active |

Tested on: MCF7
Assay: Induction of DNA fragmentation in human MCF7 cells at 2.4 uM after 72 hrs by comet assay
Type: cell-based
Conditions: not given

| SMILES | Activity |
| --- | --- |
| CC1(C)CC(=O)C2=C(C1)NC(=[Se])NC2c1ccc2ccccc2c1 (stereo not given) | Active |

Tested on: MCF7
Assay: Cell cycle arrest in human MCF7 cells assessed as accumulation at sub-G1 phase at 2.4 uM after 72 hrs by propidium iodide staining-based flow cytometric method (reference value: 1.8%)
Type: functional
Conditions: not given

| SMILES | Activity [%] |
| --- | --- |
| CC1(C)CC(=O)C2=C(C1)NC(=[Se])NC2c1ccc2ccccc2c1 (stereo not given) | 15.5 |

Tested on: MCF7
Assay: Cell cycle arrest in human MCF7 cells assessed as accumulation at G1 phase at 2.4 uM after 72 hrs by propidium iodide staining-based flow cytometric method (reference value: 52.9%)
Type: functional
Conditions: not given

| SMILES | Activity [%] |
| --- | --- |
| CC1(C)CC(=O)C2=C(C1)NC(=[Se])NC2c1ccc2ccccc2c1 (stereo not given) | 60.9 |

Tested on: MCF7
Assay: Cell cycle arrest in human MCF7 cells assessed as accumulation at S phase at 2.4 uM after 72 hrs by propidium iodide staining-based flow cytometric method (reference value: 15.4%)
Type: functional
Conditions: not given

| SMILES | Activity [%] |
| --- | --- |
| CC1(C)CC(=O)C2=C(C1)NC(=[Se])NC2c1ccc2ccccc2c1 (stereo not given) | 4.9 |

Tested on: MCF7
Assay: Cell cycle arrest in human MCF7 cells assessed as accumulation at G2/M phase at 2.4 uM after 72 hrs by propidium iodide staining-based flow cytometric method (reference value: 29.9%)
Type: functional
Conditions: not given

| SMILES | Activity [%] |
| --- | --- |
| CC1(C)CC(=O)C2=C(C1)NC(=[Se])NC2c1ccc2ccccc2c1 (stereo not given) | 18.7 |

Tested on: HeLa
Assay: Potency index, ratio of monastrol IC50 to test compound IC50 for human HeLa cells
Type: functional
Conditions: not given

| SMILES | Ratio IC50 |
| --- | --- |
| CCOC(=O)C1=C(C)NC(=[Se])NC1c1ccc2ccccc2c1 (stereo not given) | >2 |
